Reference: paper PMC7782552, “Activation of mitochondrial TUFM ameliorates metabolic dysregulation through coordinating autophagy induction” (Communications Biology, 2021)

Target: T1, TUFM (mitochondrial elongation factor Tu) (Mus musculus, UniProt Q8BFR5)
T1 construct: endogenous protein in 3T3-L1 cell lysate
Test: DARTS (pronase protection) immunoblot, dose-dependent, and DARTS LC-MS/MS in 3T3-L1 lysate
Type: biochemical

An EC50 of 14.4 µM was found for `COc1ccc(-c2oc3cc(O)cc(O)c3c(=O)c2O)cc1` [Kaem, kaempferide] in this work.
